The results in this text go back to ChEMBL document CHEMBL1201862, “PubChem BioAssay data set” (2004).

Holding throughout (experiment): NCI tumour cell line growth inhibition, 48 h
In assay [1] the test system is SN12C.
For assay [2], the system named is HOP-92.
The subject of assay [3] is HCT-15.
In assay [4] the test system is MCF7.
The subject of assay [5] is SF-295.
The subject of assay [6] is ACHN.
For assay [7], the system named is KM12.
Assay [8] deals with SK-MEL-2.
Assay [9] deals with NCI-H23.
The test system of assay [10] is A498.
Assay [11] relates to K562.
The test system of assay [12] is CAKI-1.
The subject of assay [13] is HCT-116.
Assay [14] has as its system SNB-19.
The subject of assay [15] is U-251.
Assay [16] deals with SK-MEL-5.
In assay [17] the test system is T47D.

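Cells were grown in 96-well plates and exposed to each compound for 48 hours at five concentrations; endpoints were interpolated linearly between bracketing concentrations, or set to the highest concentration if not reached. GI50 = concentration required for 50% inhibition of growth.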 Calls of active or inactive are those of the source. No stated cut-off is given here; in the data, active = GI50 up to about 1.1 µM and inactive = higher.

With `COc1cc(/C=C/c2cc(/C=C/c3ccc(O)c(OC)c3)oc(=O)c2)ccc1O`, the GI50 in [1] is 5.53 µM (inactive); in assay [2] it was 4.67 µM (inactive); in assay [3], 3.12 µM; in [4], 3.33 µM (inactive); in assay [5], 2.74 µM (inactive); in assay [6], 3.26 µM (inactive). In addition, the GI50 in assay [7] is 3.18 µM (inactive); in [8] it was 3.98 µM (inactive); in assay [9], 4.06 µM (inactive); in assay [10] it was 3.9 µM (inactive); in [11], 4.43 µM (inactive); in [12], 3.61 µM (inactive). In addition, the GI50 in assay [13] is 3.67 µM (inactive); in assay [14] it was 7.57 µM (inactive); in assay [15], 3.07 µM (inactive); in assay [16], 4.99 µM (inactive); in assay [17], 0.272 µM (active).
In the case of `C[C@@H]1C(=O)O[C@H]1[C@H](O)CO`, the GI50 in assay [1] was > 100 µM (inactive); in assay [2], 63.1 µM (inactive); in assay [3] it was more than 100 µM; in [4] it was > 100 µM (inactive); in [5] it was > 100 µM (inactive); in assay [6] it was > 100 µM (inactive). The GI50 in [7], in assay [8], in assay [9], in assay [10], in [12] and in [13] was > 100 µM (inactive) each time. In addition, the GI50 in assay [14], in assay [15], in assay [16] and in assay [17] was > 100 µM (inactive) throughout.
Turning to `C[C@H]1/C(=C/C(=O)OCCN(C)C)CC[C@H]2[C@H]1C(=O)C[C@H]1C(C)(C)[C@@H](O)CC[C@]21C`, the GI50 in assay [1] is > 100 µM (inactive); in [2], > 100 µM (inactive); in [3], more than 100 µM; in [4], > 100 µM (inactive); in assay [5], > 100 µM (inactive); in [6] it was > 100 µM (inactive). In addition, the GI50 in assay [7], in [8], in [9], in assay [10], in assay [12] and in [13] was > 100 µM (inactive) in each case. Further, the GI50 in assay [14], in assay [15], in assay [16] and in assay [17] was > 100 µM (inactive) each time.
For `COC(=O)/C=C(/C=C1/C(C#N)=C(N)N(c2ccc(Cl)cc2)C1(C)/C(=C\C(=O)OC)C(=O)OC)C(=O)OC` (configuration not stated), the GI50 in assay [1] was 21.6 µM (inactive); in assay [2], 5.71 µM (inactive); in assay [3], 18.5 µM; in assay [4], 20.7 µM (inactive); in assay [5], 22.8 µM (inactive); in assay [6], 22.6 µM (inactive). Also, the GI50 in assay [7] is 17.2 µM (inactive); in assay [8], 32.1 µM (inactive); in assay [9], 19.2 µM (inactive); in [10], 44.8 µM (inactive); in assay [11], 23.1 µM (inactive); in assay [12], 22.8 µM (inactive). For the same compound, the GI50 in assay [13] was 15.8 µM (inactive); in assay [14] it was 41.9 µM (inactive); in assay [15] it was 26.1 µM (inactive); in [16], 15.1 µM (inactive); in assay [17], 18.3 µM (inactive).
As for `COc1ccc(-c2cc(=O)c3c(OC)c(OC)c(OC)c(OC)c3o2)c(OC)c1`, the GI50 is 20.6 µM (inactive) in assay [1]; 14 µM (inactive) in [2]; 25.6 µM in assay [3]; 20.5 µM (inactive) in [4]; 18.4 µM (inactive) in [5]; 24.8 µM (inactive) in assay [6]. Moreover, the GI50 in assay [8] was 19.1 µM (inactive); in assay [9] it was 16.9 µM (inactive); in [10], 21.6 µM (inactive); in assay [11], 48.4 µM (inactive); in assay [12], 29.8 µM (inactive); in assay [13] it was 21.6 µM (inactive). Also, the GI50 in assay [14] is 32.8 µM (inactive); in assay [15] it was 30.8 µM (inactive); in assay [16], 16 µM (inactive); in assay [17], 8.65 µM (inactive).
